Tests used:
[1] = tested on: Pancreatic Ductal Adenocarcinoma #03; assay: Evaluation against early stage pancreatic ductal adenocarcinoma #03 in BDF mice; assay type: in vivo
From the text: Male BDF mice (12 weeks old, weight approximately 28.9 g) were implanted with the pancreatic ductal cell carcinoma #03 3 days before beginning treatment with (HO)2DEHSPM.

[2] = Non-tumor-bearing toxicity controls, same regimens; assay type: in vivo
[3] = tested on: pancreatic native polyamine pools; assay: Tissue drug and native polyamine levels (pancreas, liver) in treated dogs; assay type: in vivo, beagles
From the text: The two dogs (#490 and 494) were fed a prescription canned and dry dog food and were supplemented with Viokase, a pancreatic enzyme preparation, by mixing three tablets with food or by oral administration immediately before each feeding. The dogs were maintained on this regimen for approximately three weeks. During this time, their weight and blood chemistries were closely monitored. The Viokase supplementation was then stopped and the same parameters were again evaluated. One week after the Viokase administration had ceased, the animals were euthanized and tissues were taken for histology and for the determination of tissue polyamine levels.
As the pancreatic insufficiency side-effect that was observed after the administration of the (R,R)—(HO)2DEHSPM to the beagles may have been related to the (R,R)-chirality of the molecule, the (S,S)-enantiomer was synthesized and was compared in a head-to-head fashion with the (R,R)-enantiomer. To perform this experiment, five male beagles approximately 6-8 months of age were obtained from Harlan Sprague Dawley. There were provided with food and water ad libitum and were allowed to acclimate to their new surroundings for two weeks. The animals were weighed prior to starting drug administration and were weighed once per week during the drug dosing period. A CBC and chemistry panel and a Holter monitor were performed once per week. In addition to the usual tests, additional pancreatic function-specific tests were also performed. These additional evaluations included a fecal trypsin test, examination of the feces for fecal fat and serum trypsin-like immunoreactivity determinations. It was hoped that these signs of pancreatic insufficiency would only appear in the animals given the (R,R)-enantiomer and would not be observed in the dogs that were given the (S,S)-molecule. The pancreatic insufficiency may not become evident until approximately 7-8 weeks post-drug. At the conclusion of the experiment, all of the animals were sacrificed and the histology and tissue polyamine levels were determined.
• 1. Dogs #468 and 500 were given (R,R)—(HO)2DEHSPM subcutaneously twice daily for 13 days. • 2. They were fed Purina Dog Chow ad libitum and given free access to water. • 3. Polyamine levels in the pancreas were also analyzed at several time points post-drug. • 4. At the start of the experiment, dog #468 weighed 14.4 kg and dog #500 weighed 12.8 kg. The latter animal's weight never exceeded 13.2 kg. At the end of the drug dosing period, dog #468 weighed 13.0 kg, a loss of 1.4 kg; dog #500 weighed 13.2 kg, a gain of 0.4 kg. • 5. […] The pancreatic native polyamine pools (most especially SPD) were markedly diminished compared to untreated control tissue: [SPM]control=3,985 μm v. [SPM10-days post-treatment=2,548 μm (64% of control) [SPD]control=2,820 μm v [SPD]10-days post-treatment=721 μm (25.6% of control) • 6. Dog #468 was bright, alert and responsive until day thirteen of drug administration. […] The dog was fed boiled chicken and rice, as well as Nutrical (a caloric supplement) and cat food and was slowly weaned back to regular dog food. Frank and/or occult blood was found in the dog's stool until about 17-days post-drug. • 7. Dog #500 was bright, alert and responsive throughout the experiment. […] However, stool consistency had normalized by one week post-drug. • 8. […] The inability to digest fats was confirmed when this test was repeated and the fatty meal was supplemented with Viokase (a pancreatic enzyme supplement). […] (2.15 mg/kg every 12 hours) for 13 days • Route: subcutaneously • 1. Dogs #440 and 476 were given (S,S)— (HO)2DEHSPM subcutaneously twice daily for 13 days. • […]. They were fed Purina Dog Chow ad libitum and given free access to water. • 3. At the start of the experiment, dog #440 weighed 11.8 kg.
Two animals were also treated with DEHSPM at a dose equimolar to the (HO)2DEHSPM dosage and sacrificed at 1- and 75-days after the final treatment. […]

[4] = tested on: pancreas; assay: Pancreas anatomy and function in DEHSPM-treated animals; assay type: in vivo; settings: equimolar dose
Method: Two animals were also treated with DEHSPM at a dose equimolar to the (HO)2DEHSPM dosage and sacrificed at 1- and 75-days after the final treatment. […] At 1-day post-treatment, the total amount of drug: (parent+metabolites)1-day post-treatment=951 μm. […] At 75-days post-treatment, a substantial amount of DEHSPM remains in the pancreas: (parent+metabolites)75-days post-treatment=595 μm.
The nearly normal polyamine pools are mirrored by the anatomy.

[5] = group 2, tumor-bearing, IV QD 3, 4, 6-9, 14, 17, 18, total dosage 240 mg/kg
[6] = group 2, tumor-bearing, total dosage 240 mg/kg IV
[7] = group 4, tumor-bearing, IV QD 3-18, total dosage 205 mg/kg
[8] = group 4, tumor-bearing, total dosage 205 mg/kg IV
[9] = group 6, tumor-bearing, total dosage 102.5 mg/kg IV
[10] = group 3, NTB, IV QD 3, 4, 6-9, 14, 17, 18, total dosage 240 mg/kg
[11] = group 3, NTB, total dosage 240 mg/kg IV
[12] = group 5, NTB, IV QD 3-18, total dosage 205 mg/kg
[13] = group 5, NTB, total dosage 205 mg/kg IV
[14] = group 7, NTB, IV QD 3-18, total dosage 102.5 mg/kg
[15] = group 7, NTB, total dosage 102.5 mg/kg IV
[16] = 1-day post-treatment, equimolar dose
[17] = 75-days post-treatment, equimolar dose

## CCNCCCCNCCCCNCCCCNCC [DEHSPM, reference compound]
[1]; [5]
  Mean Body Wt. Loss: −11.2 g/mouse
  Percent Body Wt. Loss: −38.0%
[1]; [6]
  Day of Wt. Loss Nadir: 35 days
  Drug Deaths (days of death): 0/5
[1]; [7]
  Mean Body Wt. Loss: −8.6 g/mouse
  Percent Body Wt. Loss: −29.0%
[1]; [8]
  Day of Wt. Loss Nadir: 35 days
  Drug Deaths (days of death): 0/5
[1]; group 6, tumor-bearing, IV QD 3-18, total dosage 102.5 mg/kg
  Mean Body Wt. Loss: −0.4 g/mouse
[1]; [9]
  Day of Wt. Loss Nadir: 7 days
  Drug Deaths (days of death): 0/5
[2]; [10]
  Mean Body Wt. Loss: −8.5 g/mouse
  Percent Body Wt. Loss: −30.0%
[2]; [11]
  Day of Wt. Loss Nadir: 35 days
  Drug Deaths (days of death): 0/2
[2]; [12]
  Mean Body Wt. Loss: −7.5 g/mouse
  Percent Body Wt. Loss: −26.0%
[2]; [13]
  Day of Wt. Loss Nadir: 35 days
  Drug Deaths (days of death): 0/2
[2]; [14]
  Mean Body Wt. Loss: −1.0 g/mouse
  Percent Body Wt. Loss: −3.0%
[2]; [15]
  Day of Wt. Loss Nadir: 23 days
  Drug Deaths (days of death): 0/2
[3]; 1-day post-treatment, dose equimolar to the (HO)2DEHSPM dosage
  total amount of drug (parent+metabolites) in pancreas: 951 μm
[3]; [16]
  [SPD] in pancreas: 863 μm
  [SPD] in pancreas, % of control: 30.6 % of control
  [SPM] in pancreas: 2,770 μm
  [SPM] in pancreas, % of control: 69.5 % of control
[3]; [17]
  PUT in pancreas: 60 μm
  [SPD] in pancreas: 1,572 μm
  [SPD] in pancreas, % of control: 55.7 % of control
  [SPM] in pancreas: 3,162 μm
  [SPM] in pancreas, % of control: 79.3 % of control
  drug (parent+metabolites) in pancreas: 595 μm
[4]; 75-days post-treatment
  pancreas anatomy: essentially normal macroscopically and microscopically
[4]
  exocrine and endocrine pancreatic functions: appeared normal

Source: patent US20080108706A1, “Chemical resection of pancreas” (priority 1999, published 2008)
